This is an account of results in patent US20160237059A1, “HETEROCYCLIC SUBSTITUTED TRIFLUOROMETHYL PYRIMIDINONES AND THEIR USE” (BAYER PHARMA AKTIENGESELLSCHAFT, priority 2013, published 2016).

Common to all, as to format: cell-based
The target of experiment [1] is T1, murine CCR2 (Mus musculus, UniProt P51683).
T1 construct: host or cells: U2OS β-arrestin cell line
The experiment in a line: Functional β-arrestin recruiting test with murine MCP-1 (B-2b). The note with it: U2OS β-arrestin cell line transfected with murine CCR2; agonist murine MCP-1; in some cases means of several determinations. The procedure, abridged:
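In a PathHunter β-galactosidase complementation assay, U2OS cells expressing murine CCR2 were preincubated 10 min with compound (10-point, 1:3.16 dilutions), then challenged with murine MCP-1 at its predetermined EC50 for 90 min at 37 °C. Luminescence was read after 60 min, and IC50 was fitted with a 4-parameter Hill function.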

In experiment [2] the target is T1, murine CCR2. The experiment in a line: Functional β-arrestin recruiting test with human MCP-1 (B-2a). The following applies: U2OS β-arrestin cell line transfected with murine CCR2; agonist human MCP-1 at EC50 (about 3 nM); in some cases means of several determinations. An outline of the steps: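 Antagonist mode in U2OS cells expressing murine CCR2, read by PathHunter β-galactosidase complementation luminescence. Cells pre-incubated 10 min with 10-point compound dilutions (1:3.16 steps), then stimulated with human MCP-1 at its EC50 (usually about 3 nM) for 90 min at 37° C.; IC50 from 4-parameter logistic fit.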
A general note: Activated receptors often draw arrestin, which recruitment assays turn into a signal.

Experiment [3] has as its target T2, human CCR2 (Homo sapiens, UniProt P41597).
T2 construct: host or cells: Chem-1 cell line
T2 sequence (P41597 1-360 isoform P41597-2): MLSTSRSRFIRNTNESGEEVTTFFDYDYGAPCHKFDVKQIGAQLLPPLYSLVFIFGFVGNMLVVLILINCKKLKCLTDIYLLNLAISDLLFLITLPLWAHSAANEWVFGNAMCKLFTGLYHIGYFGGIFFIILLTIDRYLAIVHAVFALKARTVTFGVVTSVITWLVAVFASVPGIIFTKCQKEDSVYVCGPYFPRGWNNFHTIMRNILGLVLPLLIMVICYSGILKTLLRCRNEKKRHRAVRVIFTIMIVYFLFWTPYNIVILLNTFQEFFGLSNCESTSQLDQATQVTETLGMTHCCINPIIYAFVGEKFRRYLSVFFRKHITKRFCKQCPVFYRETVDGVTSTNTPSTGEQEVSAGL
The experiment in a line: Functional Ca2+ release test (B-1). The note with it: Chem-1 cell line transfected with human CCR2; 50% inhibition of the MCP-1 effect, MCP-1 at EC50 (about 5 nM); in some cases means of several determinations. The procedure, abridged:
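Chem-1 cells expressing human CCR2, loaded with Fluo-4 for 60 min at 37° C, were preincubated 10 min with compound (10-point, 1:3.16 dilutions), then stimulated with MCP-1 at its predetermined EC50 (about 5 nM). Ca2+ release was monitored for 120 s. IC50 came from a 4-parameter Hill fit.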

The structures appear in SMILES notation.

T1 sequence (P51683 whole entry): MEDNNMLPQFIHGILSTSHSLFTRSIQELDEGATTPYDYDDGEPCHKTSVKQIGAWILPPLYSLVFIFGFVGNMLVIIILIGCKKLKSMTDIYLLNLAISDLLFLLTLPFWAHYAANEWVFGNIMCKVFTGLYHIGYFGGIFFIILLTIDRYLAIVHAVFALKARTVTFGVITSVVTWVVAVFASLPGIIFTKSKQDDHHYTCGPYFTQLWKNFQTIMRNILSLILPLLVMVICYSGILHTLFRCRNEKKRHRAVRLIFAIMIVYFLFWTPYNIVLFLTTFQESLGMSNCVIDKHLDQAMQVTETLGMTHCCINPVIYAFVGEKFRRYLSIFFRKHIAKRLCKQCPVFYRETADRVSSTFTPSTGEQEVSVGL

The term IC50 denotes the midpoint of a concentration-inhibition curve. A higher IC50 goes with weaker potency in that assay. Turning to `O=c1[nH]c(-c2ncon2)nc(C(F)(F)F)c1Oc1ccc(Cl)c(C(F)(F)F)c1` [Example 78, 5-[4-Chloro-3-(trifluoromethyl)phenoxy]-2-(1,2,4-oxadiazol-3-yl)-6-(trifluoromethyl)pyrimidin-4(3H)-one], the IC50 is 50 nM in experiment [1], 16 nM in experiment [2] and 3.7 nM in experiment [3].
Regarding `Cc1nc(-c2nc(C(F)(F)F)c(Oc3ccc(Cl)c(Cl)c3)c(=O)[nH]2)no1` [Example 83], the 50% inhibitory concentration (IC50) in experiment [1] is 308 nM; in experiment [2], 79 nM; in experiment [3], 20 nM.
For the compound `O=c1[nH]c(Cc2ccno2)nc(C(F)(F)F)c1Oc1ccc(Cl)c(Cl)c1` [Example 95, 5-(3,4-dichlorophenoxy)-2-(1,2-oxazol-5-ylmethyl)-6-(trifluoromethyl)pyrimidin-4(3H)-one], the IC50 amounted to 449 nM in experiment [1], 77 nM in experiment [2] and 27 nM in experiment [3].
For `Nc1cnn(-c2nc(C(F)(F)F)c(Cc3ccc(Cl)c(C(F)(F)F)c3)c(=O)[nH]2)c1` [Example 107, 2-(4-Amino-1H-pyrazol-1-yl)-5-[4-chloro-3-(trifluoromethyl)benzyl]-6-(trifluoromethyl)pyrimidin-4(3H)-one] the same measures were 53 nM, 28 nM and 2.4 nM.
On to `Nc1cnn(-c2nc(C(F)(F)F)c(Oc3ccc(Cl)c(C(F)(F)F)c3)c(=O)[nH]2)c1` [Example 108, 2-(4-amino-1H-pyrazol-1-yl)-5-[4-chloro-3-(trifluoromethyl)phenoxy]-6-(trifluoromethyl)pyrimidin-4(3H)-one], for which the values for the IC50 in experiment [1], in experiment [2] and in experiment [3] were 27 nM, 2.7 nM and 0.8 nM, respectively.
For `Nc1ccc(-c2nc(C(F)(F)F)c(Oc3ccc(Cl)c(C(F)(F)F)c3)c(=O)[nH]2)nc1` [Example 113, 2-(5-Aminopyridin-2-yl)-5-[4-chloro-3-(trifluoromethyl)phenoxy]-6-(trifluoromethyl)pyrimidin-4(3H)-one] the same measures were 16 nM, 8.3 nM and 0.4 nM.
With `O=c1[nH]c(-c2ncon2)nc(C(F)(F)F)c1Oc1ccc(Cl)c(Cl)c1` [compound 79, 5-(3,4-Dichlorophenoxy)-2-(1,2,4-oxadiazol-3-yl)-6-(trifluoromethyl)pyrimidin-4(3H)-one], the IC50 in experiment [1] is 195 nM; in experiment [2], 53 nM; in experiment [3], 4.2 nM.
